The values below come from article PMC6934184, “Selective DNA-PKcs inhibition extends the therapeutic index of localized radiotherapy and chemotherapy” (The Journal of Clinical Investigation, 2019).

The inhibition is the relative decrease from the control value, in per cent.

In the experiment the target is T1, CSNK1G1 (CK1 gamma 1) (Homo sapiens, UniProt Q9HCP0).
T1 construct: purchased Thermo Fisher Scientific (Life Technologies) SelectScreen
Briefly: SelectScreen Z'LYTE. The experiment is classed as biochemical. The gist of the method: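 Percent values come from Thermo SelectScreen profiling of NU5455, combining activity and binding assays. CSF1R was run in Z'LYTE format at Km app ATP, and CAMK1 in Adapta format with ATP listed at 10.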

T1 sequence (Q9HCP0 whole entry): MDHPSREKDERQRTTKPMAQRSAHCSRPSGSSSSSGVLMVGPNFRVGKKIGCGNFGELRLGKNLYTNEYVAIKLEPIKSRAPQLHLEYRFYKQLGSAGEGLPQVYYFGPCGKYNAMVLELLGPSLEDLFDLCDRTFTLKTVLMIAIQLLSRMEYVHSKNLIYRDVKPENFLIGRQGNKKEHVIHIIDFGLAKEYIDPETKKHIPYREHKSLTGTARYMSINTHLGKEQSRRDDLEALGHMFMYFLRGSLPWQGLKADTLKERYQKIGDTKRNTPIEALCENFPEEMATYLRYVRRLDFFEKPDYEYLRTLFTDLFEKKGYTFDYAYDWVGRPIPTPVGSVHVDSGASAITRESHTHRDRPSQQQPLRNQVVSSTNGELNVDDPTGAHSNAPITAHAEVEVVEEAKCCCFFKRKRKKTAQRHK

For the compound `CN(C(=O)CN1CCOCC1)c1ccc2sc3c(-c4cccc5c(=O)cc(N6CC7CCC(C6)O7)oc45)cccc3c2c1` [NU5455], the inhibition at 1 µM was -9.9%.
